In paper PMC9019904, “AD Informer Set: Chemical tools to facilitate Alzheimer's disease drug discovery” (Alzheimer's & Dementia : Translational Research & Clinical …, 2022):
Where a SMILES comes first, the peptide text is derived from it. [ ]: non-standard residue; d: D form. dHyp = O=C(O)[C@H]1C[C@H](O)CN1

Key:
[1] = test system: BV2 (mouse microglia) cell line; experiment: pHrodo-myelin phagocytosis/cell viability high content imaging assay: viability (cell count, nuclear area, nuclear intensity); settings: 48 hours treatment
Method: (§1) All AD Informer Set compounds were tested in two immortalized microglial cell lines, murine (BV2), and human (HMC3), in a high‐content imaging assay in duplicate by the Chu lab. Experimental details and all data can be found as supporting information files.
(§2) The role of microglia in AD has been well documented and was thus chosen as a cell type in which to profile the AD Informer Set.[43], [44], [45] As an example, neuroinflammation, as detected by the presence of activated complement proteins, interleukins, cytokines, and chemokines in microglia and astrocytes, is increased early in AD and is considered pathogenic due to its chronic nature.[33], [34] Cytotoxic effects can be assessed by considering multiple parameters.
(§3) Microglial viability and phagocytosis studies: The pHrodo-myelin phagocytosis/cell viability assay, modified based on a published method, was run with immortalized BV2 (mouse microglia) and HMC3 (human microglia) cell lines in the Chu lab at IUSM. The 384-well plate high content analysis assay with BV2 and HMC3 microglial cell lines is used to quantify both phagocytosis and cell viability simultaneously. High content imaging is performed with the ArrayScan automatic imaging system and imaging analysis done with the software on the system. After allowing cells to adhere overnight, they are treated with compounds for total 48 hours including final 20 hours seeded with pHrodo-myelin (labeled phagocytosis ligand, purified […]
(§4) (approximately 22 hours after pHrodo-myelin addition). Three measurements are extracted from the assay: 1) phagocytosis signal by mean total phagocytosis spot intensity per cell, 2) total cell counts per well as the main measurement of cell viability, and 3) mean average nuclear intensity per cell as profiling of cell health since apoptotic cells showing nuclear intensity increase (early apoptosis) and decrease (later apoptosis), respectively. These measurements allow for evaluation of compound-induced phagocytosis (1) and cytotoxicity (2 and 3). Assays were carried out at a single concentration (10 μM). Idelalisib (10 μM) and cytochalasin-D (4 μM) were used as positive controls in the assay. All data, which was an average of 2 data points, was normalized to untreated wells and reported as % control, which is included in the Supporting Information both as a raw data file and summarized in the compound/gene-annotation file.

[2] = test system: HMC3 (human microglia) cell line; experiment: as above; settings: 48 hours treatment
Method: as §1, §2, §3, §4

[3] = test system: BV2 (mouse microglia) cell line; experiment: pHrodo-myelin phagocytosis/cell viability high content imaging assay: phagocytosis signal; assay type: cell-based
Method: (§5) It is important to note that stressed cells, such as those that are dying, are prone to show an increase in phagocytosis. […] MerTK promotes phagocytosis and thus MerTK inhibition is proposed to lead to inhibition of phagocytosis.[47]
(§6) phagocytosis and cell viability simultaneously. High content imaging is performed with the
(§7) (approximately 22 hours after pHrodo-myelin addition). Three measurements are extracted
(§8) intensity increase (early apoptosis) and decrease (later apoptosis), respectively. These
and 3). […]

[4] = test system: HMC3 (human microglia) cell line; experiment: as above; assay type: cell-based
Method: as §5, §6, §7, §8
and 3). […]

[5] = BV2 cells, 10 uM compound, 48 hours treatment, pHrodo-myelin final 20 hours
[6] = HMC3 cells, 10 uM compound, 48 hours treatment, pHrodo-myelin final 20 hours
[7] = BV2, compound 10 uM, pHrodo-myelin
[8] = HMC3, compound 10 uM, pHrodo-myelin

| SMILES | 1. Cell count (% control) ([1]; BV2 cells, 10 uM compound) | 2. Nuclear Area (% Control) ([1]; BV2 cells, 10 uM compound) | 3. Nuclear DNA Intensity (% control) ([1]; BV2 cells, 10 uM compound) | 1. Cell count (% control) ([2]; HMC3 cells, 10 uM compound) | 2. Nuclear Area (% Control) ([2]; HMC3 cells, 10 uM compound) | 3. Nuclear DNA Intensity (% control) ([2]; HMC3 cells, 10 uM compound) | 4. Phagocytosis (% control) [3, 5] [% control] | 4. Phagocytosis (% control) [4, 6] [% control] | 1. Cell count (% control) ([1]; BV2, compound 10 uM) | 2. Nuclear Area (% Control) ([1]; BV2, compound 10 uM) | 3. Nuclear DNA Intensity (% control) ([1]; BV2, compound 10 uM) | 1. Cell count (% control) ([2]; HMC3, compound 10 uM) | 2. Nuclear Area (% Control) ([2]; HMC3, compound 10 uM) | 3. Nuclear DNA Intensity (% control) ([2]; HMC3, compound 10 uM) | 4. Phagocytosis (% control) [3, 7] [% control] | 4. Phagocytosis (% control) [4, 8] [% control] |
| --- | --- | --- | --- | --- | --- | --- | --- | --- | --- | --- | --- | --- | --- | --- | --- | --- |
| Cc1cc(SCc2sc(-c3ccc(C(F)(F)F)c(F)c3)nc2C)ccc1OCC(=O)O [UNC10302862A] | 73.4 | 105.0 | 104.6 | 84.5 | 103.8 | 93.4 | 104.2 | 107.7 | – | – | – | – | – | – | – | – |
| Cc1c(COc2cc(OCc3cccc(C#N)c3)c(CN3C[C@H](O)C[C@@H]3C(=O)O)cc2Cl)cccc1-c1ccc2c(c1)OCCO2 [UNC10302972A] | 81.0 | 106.7 | 113.8 | 116.0 | 98.5 | 101.3 | 125.1 | 111.9 | – | – | – | – | – | – | – | – |
| CCC(=O)O[C@]1(C(=O)SCF)[C@H](C)C[C@H]2[C@@H]3C[C@H](F)C4=CC(=O)C=C[C@]4(C)[C@@]3(F)[C@@H](O)C[C@@]21C [UNC10121416A] | 84.8 | 98.6 | 113.9 | 136.9 | 109.9 | 86.5 | 95.5 | 94.0 | – | – | – | – | – | – | – | – |
| Cc1cc(Nc2nc(N[C@@H](C)c3ncc(F)cn3)ncc2Cl)n[nH]1 [UNC10302859A] | – | – | – | – | – | – | – | – | 53.2 | 109.7 | 105.5 | 84.7 | 121.3 | 92.5 | 153.2 | 95.5 |
| CNc1nc(C)nc(N[C@H]2CCC[C@@H](C(=O)NCc3ccc(C#N)cc3C(F)(F)F)C2)n1 [UNC10302679A] | 107.8 | 106.3 | 102.1 | 141.0 | 100.7 | 92.7 | 135.7 | 69.3 | – | – | – | – | – | – | – | – |
| Fc1ccc(C(CCCNCC2CCc3[nH]c4ccc(F)cc4c3C2)c2ccc(F)cc2)cc1 (centres unmarked) [UNC10302893A] | 10.4 | 127.3 | 33.1 | 14.1 | 53.2 | 215.4 | 0.0 | 0.0 | – | – | – | – | – | – | – | – |
| CC(=O)N[C@H](Cc1ccc(O)cc1)C(=O)N1CCC[C@@H]1C(=O)N1C[C@@H](O)C[C@@H]1C(=O)NCC(=O)N[C@H](C)C(=O)NCC(N)=O [UNC10303110A] (Ac-[dY][dP][dHyp]G[dA]G-NH2) | – | – | – | – | – | – | – | – | 113.8 | 106.0 | 97.3 | 110.1 | 103.7 | 94.9 | 117.7 | 73.8 |
